The text below walks through data of BindingDB's records for doi:10.1021/jm3016848 (Ikerchem, 2013).

The nature of the experiment: Inhibition of LFA-1/ICAM-1 interaction in mouse Lim51b cells assessed as PMA-induced adhesion to ICAM-1 expressing HSE cells measured per 10^5 cells after 30 mins by fluorometric microplate reader analysis.

pIC50: −log10 of the molar value.

`CC[C@H](C)[C@H](OCc1ccccc1)[C@H]1[C@H]([N+](=O)[O-])[C@H](c2ccccc2)N[C@]1(C)C(=O)NCCC(=O)O`: the pIC50 is 4.56.
